Tested on: Colo205 human colon carcinoma cell line
Assay: In vitro tumor cell proliferation assay (MTS, CellTiter 96 Aqueous One Solution)
Format: cell-based
Settings: COLO 205, Colo205 cells, 72 hours compound exposure, MTS absorbance at 490 nm, read-out: IC50 (concentration of test compound required to inhibit proliferation of 50% of the cells)
Description: In Vitro Tumor Cell Proliferation Assay
The adherent H460 human non-small cell lung carcinoma and Colo205 human colon carcinoma cell lines were purchased from the American Type and Culture Collection (ATCC, Manassas, Va.) and maintained in RPMI-1640 growth media supplemented with 10% heat inactivated fetal bovine serum (Gibco, Invitrogen Corp. Grand Island, N.Y.). At 37° C. in a humidified atmosphere of 5% CO2.
The CellTiter 960 Aqueous One Solution kit, MTS, (Promega, Madison, Wis.) was used to measure proliferation of tumor cell lines in vitro. This method monitors the bioreduction of a tetrazolium dye as a measure of cell viability. On Day 0, exponentially growing cells were trypsinized, resuspended in RPMI-1640 growth media supplemented with 10% FCS, 100 u/ml of penicillin G and 100 ug/ml of streptomycin sulfate, and seeded at 2000 cells per well into 96 well microtiter plates. Cells were incubated overnight in a humidified atmosphere of 5% CO2 at 37° C. On Day 1, serial dilutions of compounds were prepared at 2× the finial assay concentration. One hundred microliters of 2× solution was added to test wells in duplicate and control wells received no test compound. The final drug concentration ranged from 0 to 10-20 um in a 5 point dose-response curve. Cells were incubated in the presence of test compounds in a humidified atmosphere of 5% CO2 at 37° C. for 72 hours. After 72 hours of compound exposure, 40 ul of Promega CellTiter 960 Aqueous One Solution was added to each well and absorbance at 490 n-M was measured using a multi-well plate reader. Percent inhibition of proliferation was calculated using the following formula: 100×(1−Absorbancetreated−Background/(Absorbancecontrol−Background)
Absorbancetreated=absorbance at 490 nm in test wells, cells with test compound
Absorbancecontrol=absorbance at 490 nm in control wells, cells with no test compound
Background=absorbance 490 nm in wells containing media and no cells
The concentration of test compound required to inhibit proliferation of 50% of the cells (IC50) was determined by linear regression analysis.
Representative compounds of the invention were tested in the above-described Colo205 human colon carcinoma cell line in vitro assay and found to inhibit human colon carcinoma cell proliferation, and are summarized as follows: […]

SMILES | IC50
N#Cc1cccnc1N1CCN(c2c(F)cc3c(=O)c(C(=O)O)cn(-c4ccc(CN5CCCC5)cc4F)c3c2Cl)CC1 [Example 45, 8-chloro-7-[4-(3-cyanopyridin-2-yl)piperazin-1-yl]-6-fluoro-1-[2-fluoro-4-(pyrrolidin-1-ylmethyl)phenyl]-4-oxo-1,4-dihydroquinoline-3-carboxylic acid] | < 500 nM
O=C(O)c1cn(-c2ccc(CN3CCCC3)cc2F)c2c(Cl)c(N3CCN(c4ccccc4)CC3)c(F)cc2c1=O [Example 43, 8-chloro-6-fluoro-1-[2-fluoro-4-(pyrrolidin-1-ylmethyl)phenyl]-4-oxo-7-(4-phenylpiperazin-1-yl)-1,4-dihydroquinoline-3-carboxylic acid] | < 500 nM
O=C(O)c1cn(-c2ccc(CN3CCCC3)nc2)c2c(Cl)c(N3CCN(c4ccc(F)cc4)CC3)c(F)cc2c1=O [Example 37, 8-chloro-6-fluoro-7-[4-(4-fluorophenyl)-piperazin-1-yl]-4-oxo-1-[6-(pyrrolidin-1-ylmethyl)pyridin-3-yl]-1,4-dihydroquinoline-3-carboxylic acid] | < 500 nM
O=C(O)c1cn(-c2ccc(CNC3CC3)cc2)c2c(Cl)c(N3CCN(c4ncccn4)CC3)c(F)cc2c1=O [Example 60, 8-chloro-1-{4-[(cyclopropylamino)methyl]-phenyl}-6-fluoro-4-oxo-7-(4-pyrimidin-2-ylpiperazin-1-yl)-1,4-dihydroquinoline-3-carboxylic acid] | < 500 nM
COC[C@H]1CCCN1Cc1ccc(-n2cc(C(=O)O)c(=O)c3cc(F)c(N4CCN(c5ccccn5)CC4)c(Cl)c32)cc1 [Example 21, 8-chloro-6-fluoro-1-(4-{[(2R)-2-(methoxy-methyl)pyrrolidin-1-yl]methyl}phenyl)-4-oxo-7-(4-pyridin-2-ylpiperazin-1-yl)-1,4-dihydroquinoline-3-carboxylic acid] | < 500 nM
O=C(O)c1cn(-c2ccc(CN3CCCC3)cc2F)c2c(Cl)c(N3CCN(c4ccc(F)cc4)CC3)c(F)cc2c1=O [Example 41, 8-chloro-6-fluoro-7-[4-(4-fluorophenyl)-piperazin-1-yl]-1-[2-fluoro-4-(pyrrolidin-1-ylmethyl)phenyl]-4-oxo-1,4-dihydroquinoline-3-carboxylic acid] | < 500 nM
CON(C)Cc1ccc(-n2cc(C(=O)O)c(=O)c3cc(F)c(N4CCN(c5ccccc5C#N)CC4)c(Cl)c32)cc1 [Example 53, 8-chloro-7-[4-(2-cyanophenyl)piperazin-1-yl]-6-fluoro-1-(4-{[methoxy(methyl)amino]methyl}phenyl)-4-oxo-1,4-dihydroquinoline-3-carboxylic acid] | 2000 to 20000 nM
O=C(O)c1cn(-c2ccc(CN3CCCC3)cc2)c2c(Cl)c(N3CCN(c4ccc(Cl)cc4)CC3)c(F)cc2c1=O [Example 3, 8-chloro-6-fluoro-7-[4-(4-chlorophenyl)-piperazin-1-yl]-4-oxo-1-[4-(pyrrolidin-1-ylmethyl)phenyl]-1,4-dihydroquinoline-3-carboxylic acid] | 500 to 2000 nM
CC1CCCN1Cc1ccc(-n2cc(C(=O)O)c(=O)c3cc(F)c(N4CCN(c5ccccn5)CC4)c(Cl)c32)cc1 (centres unmarked) [Example 17, 8-chloro-6-fluoro-1-{4-[(2-methylpyrrolidin-1-yl)methyl]phenyl}-4-oxo-7-(4-pyridin-2-ylpiperazin-1-yl)-1,4-dihydroquinoline-3-carboxylic acid] | < 500 nM

The remaining lines, values ahead:

IC50 | SMILES
< 500 nM | CCN(CC)Cc1ccc(-n2cc(C(=O)O)c(=O)c3cc(F)c(N4CCN(c5ccc(C(C)=O)cc5)CC4)c(OC)c32)cc1 [Example 116, 7-[4-(4-acetylphenyl)piperazin-1-yl]-1-{4-[(diethylamino)methyl]phenyl}-6-fluoro-8-methoxy-4-oxo-1,4-dihydroquinoline-3-carboxylic acid]
500 to 2000 nM | CN(C)Cc1ccc(-n2cc(C(=O)O)c(=O)c3cc(F)c(N4CCN(c5ncccn5)CC4)c(OC(F)(F)Cl)c32)cc1 [Example 157, 8-[chloro(difluoro)methoxy]-1-{4-[(dimethylamino)methyl]phenyl}-6-fluoro-4-oxo-7-(4-pyrimidin-2-ylpiperazin-1-yl)-1,4-dihydroquinoline-3-carboxylic acid]
< 500 nM | COc1c(N2CCN(c3ccc(F)cc3)CC2)c(F)cc2c(=O)c(C(=O)O)cn(-c3ccc(CN(C)C)cc3)c12 [Example 93, 1-{4-[(dimethylamino)methyl]phenyl}-6-fluoro-7-[4-(4-fluorophenyl)piperazin-1-yl]-8-methoxy-4-oxo-1,4-dihydroquinoline-3-carboxylic acid]
< 500 nM | CN(C)Cc1ccc(-n2cc(C(=O)O)c(=O)c3cc(F)c(N4CCN(c5cccc(Cl)c5)CC4)c(OC(F)(F)F)c32)cc1 [Example 130, 7-[4-(3-chlorophenyl)piperazin-1-yl]-1-{4-[(dimethylamino)methyl]phenyl}-6-fluoro-4-oxo-8-(trifluoromethoxy)-1,4-dihydroquinoline-3-carboxylic acid]
< 500 nM | CN(C)Cc1ccc(-n2cc(C(=O)O)c(=O)c3cc(F)c(N4CCN(c5ccc(F)cc5)CC4)c(OC(F)(F)Cl)c32)cc1 [Example 155, 8-[chloro(difluoro)methoxy]-1-{4-[(dimethylamino)methyl]phenyl}-6-fluoro-7-[4-(4-fluorophenyl)piperazin-1-yl]-4-oxo-1,4-dihydroquinoline-3-carboxylic acid]
500 to 2000 nM | COc1ccccc1N1CCN(c2c(F)cc3c(=O)c(C(=O)O)cn(-c4ccc(CN5CCCC5)cc4)c3c2OC)CC1 [Example 83, 6-fluoro-8-methoxy-7-[4-(2-methoxyphenyl)-piperazin-1-yl]-4-oxo-1-[4-(pyrrolidin-1-ylmethyl)phenyl]-1,4-dihydroquinoline-3-carboxylic acid]
2000 to 20000 nM | O=C(O)c1cn(-c2ccc(CNCC3CCCCC3)cc2)c2c(Cl)c(N3CCN(c4ncccn4)CC3)c(F)cc2c1=O [Example 190, 8-chloro-1-{4-[(4-cyclohelmethyl-amino)-methyl]-phenyl}-6-fluoro-4-oxo-7-(4-pyrimidin-2-yl-piperazin-1-yl)-1,4-dihydroquinoline-3-carboxylic acid]
< 500 nM | CN(C)Cc1ccc(-n2cc(C(=O)O)c(=O)c3cc(F)c(N4CCN(c5ccccn5)CC4)c(OC(F)(F)Cl)c32)cc1 [Example 154, 8-[chloro(difluoro)methoxy]-1-{4-[(dimethylamino)methyl]phenyl}-6-fluoro-4-oxo-7-(4-pyridin-2-ylpiperazin-1-yl)-1,4-dihydroquinoline-3-carboxylic acid]
< 500 nM | COc1c(N2CCN(c3cccc(F)c3)CC2)c(F)cc2c(=O)c(C(=O)O)cn(-c3ccc(CN4CCCC4)cc3)c12 [Example 85, 6-fluoro-7-[4-(3-fluorophenyl)piperazin-1-yl]-8-methoxy-4-oxo-1-[4-(pyrrolidin-1-ylmethyl)phenyl]-1,4-dihydroquinoline-3-carboxylic acid]
500 to 2000 nM | N#Cc1c(N2CCN(c3ccccn3)CC2)c(F)cc2c(=O)c(C(=O)O)cn(-c3ccc(CN4CCCC4)cc3)c12 [Example 169, 8-cyano-6-fluoro-4-oxo-7-(4-pyridin-2-ylpiperazin-1-yl)-1-[4-(pyrrolidin-1-ylmethyl)phenyl]-1,4-dihydroquinoline-3-carboxylic acid]
< 500 nM | CCN(CC)Cc1ccc(-n2cc(C(=O)O)c(=O)c3cc(F)c(N4CCN(c5ccc(F)cc5F)CC4)c(OC(F)(F)F)c32)cc1 [Example 137, 1-{4-[(diethylamino)methyl]phenyl}-7-[4-(2,4-difluorophenyl)piperazin-1-yl]-6-fluoro-4-oxo-8-(trifluoromethoxy)-1,4-dihydroquinoline-3-carboxylic acid]
< 500 nM | O=C(O)c1cn(-c2ccc(CN3CCCC3)cc2)c2c(OC(F)(F)F)c(N3CCN(c4cccc(Cl)c4)CC3)c(F)cc2c1=O [Example 119, 7-[4-(3-chlorophenyl)piperazin-1-yl]-6-fluoro-4-oxo-1-[4-(pyrrolidin-1-ylmethyl)phenyl]-8-(trifluoromethoxy)-1,4-dihydroquinoline-3-carboxylic acid]
< 500 nM | CCN(CC)Cc1ccc(-n2cc(C(=O)O)c(=O)c3cc(F)c(N4CCN(c5ccc(C#N)cc5)CC4)c(OC)c32)cc1 [Example 108, 7-[4-(4-cyanophenyl)piperazin-1-yl]-1-{4-[(diethylamino)methyl]phenyl}-6-fluoro-8-methoxy-4-oxo-1,4-dihydroquinoline-3-carboxylic acid]
< 500 nM | O=C(O)c1cn(-c2ccc(CNC3CCCC3)cc2)c2c(OC(F)(F)Cl)c(N3CCN(c4ccccn4)CC3)c(F)cc2c1=O [Example 180, 8-(chloro-difluoromethoxy)-1-(4-cyclopentylaminomethyl-phenyl)-6-fluoro-4-oxo-7-(4-pyridin-2-yl-piperazin-1-yl)-1,4-dihydroquinoline-3-carboxylic acid]
